Source: patent publication US8314092B2, “Substituted [(5H-pyrrolo[2,1-c][1,4]benzodiazepin-11-yl)piperazin-1-yl]-2,2-dimethylpropanoic acid compounds as dual activity H1 inverse agonists/5-HT2A antagonists” (Eli Lilly and Company, priority 2011, dated 2012)
Where a name gives a salt, the structure may show the parent alone.

Key:
Wistar rats = assay: Sleep and behavioral monitoring in rats (EEG, EMG, motion); format: in vivo; conditions: rat, 3 mg/kg
Method: Sleep and behavioral monitoring in rats: Representative compounds of the present invention are tested in rats for their ability to increase the amount of sleep or decrease sleep interruption or both without undesired effects such as inhibition of REM sleep, waking motor impairment, and/or rebound insomnia. Test animals are continuously monitored by electro-encephalograms (EEG), electromyograms (EMG), and motion to measure cumulative nonREM sleep, cumulative total sleep, average sleep bout duration, longest sleep bout duration, rebound insomnia, REM sleep inhibition and locomotor activity intensity during wakefulness. Methods for such studies are known in the art (see for example methods described in Edgar D M, Seidel W F. Modafinil induces wakefulness without intensifying motor activity or subsequent rebound hypersomnolence in the rat. J Pharmacology & Experimental Therapeutics 1997; 283: 757-769; van Gelder R N, Edgar D M, Dement W C. Real-time automated sleep scoring: validation of a microcomputer-based system for mice. Sleep 1991, 14: 48-55; and Gross B A, Walsh C M, Turakhia A A, Booth V, Mashour G A, Poe G R. Open-source logic-based automated sleep scoring software using electrophysiological recordings in rats. J Neurosci Methods. 2009; 184(1):10-8.) Studies are conducted as follows: Animal preparation. Adult, male Wistar rats (approximately 270-300 g at time of surgery) are surgically fitted for chronic recording of EEG, EMG, and motion as follows: Rats are surgically prepared with a cranial implant consisting of four stainless steel screws for EEG recording (two frontal [3.9 mm anterior from bregma, and ±2.0 mm mediolaterally] and two occipital [6.4 mm posterior from bregma, ±5.5 mm mediolaterally]), and with two Teflon-coated stainless steel wires for EMG recording (positioned under the nuchal trapezoid muscles). All leads are soldered to a miniature connector (Microtech, Boothwyn, Pa.) prior to surgery. The implant assembly is affixed to the skull by the combination of the stainless steel EEG recording screws, cyanoacrylate applied between the implant connector and skull, and dental acrylic. Locomotor activity is monitored via a miniature transmitter (Minimitter PDT4000G, Philips Respironics, Bend, Oreg.) surgically placed into the abdomen. At least 3 weeks are allowed for recovery. Recording environment. Each rat is housed individually within a microisolator cage modified with an inserted polycarbonate filter-top riser to allow more vertical headroom. A flexible cable that minimally restricts movement is connected at one end to a commutator affixed to the cage top and at the other end to the animal's cranial implant. Each cage is located within separate, ventilated compartments of a stainless steel sleep-wake recording chamber. Food and water are available ad libitum and the ambient temperature is maintained at about 23±1° C. A 24-hr. light-dark cycle (LD 12:12) using fluorescent light is maintained throughout the study. Relative humidity averages approximately 50%. Animals are undisturbed for at least 30 hrs before and after each treatment. Study design and dosing. The vehicle (placebo, methylcellulose 15 centipoise 0.25% in water) or one of the test compound dose levels is administered orally at 1 mL/kg pseudo-randomly such that no rat receives the same treatment twice, and no rat receives more than two of the 8 treatments in any one study. Each rat is removed from its cage for about a minute to be weighed and treated. At least 6 days “washout” period precede and follow each treatment. Data collection. […]

[1] = target: T1, recombinant 5-HT2A receptor (human) (Homo sapiens, UniProt P28223); assay: 5-HT2A competition binding assay ([3H]-Ketanserin SPA)
T1 construct: expressed in transfected cells
Method: [^3H]-Ketanserin binding experiments are carried out in SPA 96-well format. Membranes used in this assay are prepared from AV-12 cells stably expressing recombinant 5-HT2A receptor (human). The incubation is initiated by the addition of a mixture of WGA YSi SPA beads (1 mg/well, Perkin Elmer (MA, USA), RPNQ0011) and 2 μg membranes to assay buffer (67 mM Tris, 0.5 mM EDTA; pH 7.6) containing 3.1 nM [^3H]-Ketanserin and varying concentrations of the test compound (10 point concentration response curves). Non-specific binding is determined in the presence of 20 μM 1-(1-Naphthyl)piperazine. Samples were incubated for four hours at room temperature (22° C.) and then read in a Microbeta Trilux.
(§1) Curves are evaluated using a 4-parameter logistic nonlinear equation to obtain the concentration of competitor causing 50% inhibition of radioligand binding (IC50). Equilibrium dissociation constants (Ki) are calculated according to the equation Ki=IC50/(1+L/Kd), where L equals the concentration of radioligand used in the experiment and Kd equals the equilibrium dissociation constant of the radioligand for the receptor, determined from standard saturation analysis or homologous competition experiments. Reported values for Ki, where n values are indicated, are shown as geometric mean±the standard error of the mean (SEM), with the number of replicate determinations indicated by n. […]

[2] = target: T2, recombinant 5-HT2c receptor (human) (Homo sapiens, UniProt P28335); assay: 5-HT2c competition binding assay ([125I]-DOI SPA)
T2 construct: expressed in transfected cells
Method: [^125I]-(±)DOI binding experiments are carried out in SPA 96-well format. Membranes used in this assay are prepared from AV-12 cells stably expressing recombinant 5-HT2c receptor (human). The incubation is initiated by the addition of a mixture of WGA PVT SPA beads (0.5 mg/well, Perkin Elmer (MA, USA), RPNQ0001) and 2.5 μg membranes to assay buffer (50 mM Tris-HCl, 10 mM MgCl2, 0.5 mM EDTA, 10 μM pargyline, 0.1% ascorbic acid, pH7.4) containing 0.2 nM [[^125I]-(±)DOI and varying concentrations of the test compound (10 point concentration response curves). Non-specific binding is determined in the presence of 20 μM 1-(1-Naphthyl)piperazine. Samples are incubated for four hours at room temperature (22° C.) and then read in a Microbeta Trilux.
as §1, with “experiments.” for “experiments. Reported values for Ki, where n values are indicated, are shown as geometric mean±the standard error of the mean (SEM), with the number of replicate determinations indicated by n.”

hERG channel = hERG channel (Homo sapiens, UniProt Q12809); assay: hERG channel assay
Text: (§2) Further, the compounds of the invention may be tested in binding assays and functional activity assays by well known methods for other physiologically important receptors such as, but not limited to, the hERG channel, other serotonin receptors (specifically 5-HT1A, 5-HT1B, 5-HT1D, 5-HT1E, 5-HT1F receptors, lack of agonist activity at 5-HT2B receptors, 5-HT2C, 5-HT4, 5-HTS, 5-HT6, and 5-HT7 receptors), muscarinic receptors, dopaminergic receptors (specifically D1, D2, and D3), GABAA receptors, adrenergic receptors and monoamine transporters. Certain exemplified compounds are tested at these receptors and are shown to lack significant activity.

Dopamine D1 = Dopamine D1 (Homo sapiens, UniProt P21728); assay: Dopamine D1 binding
Text: as §2

Dopamine D2 = Dopamine D2 (Homo sapiens, UniProt P14416); assay: Dopamine D2 binding
Text: as §2

Dopamine D3 = Dopamine D3 (Homo sapiens, UniProt P35462); assay: Dopamine D3 binding
Text: as §2

5-HT1A = 5-HT1A (Homo sapiens, UniProt P08908); assay: 5-HT1A binding
Text: as §2

5-HT1B = 5-HT1B (Homo sapiens, UniProt P28222); assay: 5-HT1B binding
Text: as §2

5-HT1D = 5-HT1D (Homo sapiens, UniProt P28221); assay: 5-HT1D binding
Text: as §2

5-HT5 = 5-HT5 (Homo sapiens, UniProt P47898); assay: 5-HT5 binding
Text: as §2

5-HT6 = 5-HT6 (Homo sapiens, UniProt P50406); assay: 5-HT6 binding
Text: as §2

5-HT7 = 5-HT7 (Homo sapiens, UniProt P34969); assay: 5-HT7 binding
Text: as §2

Adrenergic alpha1A = Adrenergic alpha1A (Homo sapiens, UniProt P35348); assay: Adrenergic alpha1A binding
Text: as §2

Adrenergic alpha1B = Adrenergic alpha1B (Homo sapiens, UniProt P35368); assay: Adrenergic alpha1B binding
Text: as §2

Adrenergic alpha2A = Adrenergic alpha2A (Homo sapiens, UniProt P08913); assay: Adrenergic alpha2A binding
Text: as §2

Adrenergic alpha2B = Adrenergic alpha2B (Homo sapiens, UniProt P18089); assay: Adrenergic alpha2B binding
Text: as §2

Adrenergic alpha2C = Adrenergic alpha2C (Homo sapiens, UniProt P18825); assay: Adrenergic alpha2C binding
Text: as §2

Serotonin Transporter = Serotonin Transporter (Homo sapiens, UniProt P31645); assay: Serotonin transporter assay; format: binding
Text: as §2

Norepinephrine Transport = Norepinephrine Transport (Homo sapiens, UniProt P23975); assay: Norepinephrine transporter assay; format: binding
Text: as §2

Dopamine Transporter = Dopamine Transporter (Homo sapiens, UniProt Q01959); assay: Dopamine transporter assay; format: binding
Text: as §2

[3] = target: human recombinant H1 receptor (Homo sapiens, UniProt P35367); assay: H1 competition binding assay ([3H]-Pyrilamine SPA); set-up: expressed in transfected cells
Method: [^3H]-Pyrilamine binding experiments are carried out in SPA (scintillation proximity assay) 96-well format. Membranes used in this assay are prepared from HEK-293 cells stably expressing recombinant H1 receptor (human). The incubation is initiated by the addition of a mixture of WGA PVT SPA beads (1 mg/well, Perkin Elmer (MA, USA) RPNQ0001) and 3 μg membranes to assay buffer (67 mM Tris; pH 7.6) containing 3.5 nM [^3H]-Pyrilamine and varying concentrations of the test compound (10 point concentration response curves). Non-specific binding is determined in the presence of 10 μM Triprolidine. Samples are incubated for four hours at room temperature (22° C.) and then read in a Microbeta Trilux.
as §1

Sequence of Dopamine Transporter (Q01959 whole entry): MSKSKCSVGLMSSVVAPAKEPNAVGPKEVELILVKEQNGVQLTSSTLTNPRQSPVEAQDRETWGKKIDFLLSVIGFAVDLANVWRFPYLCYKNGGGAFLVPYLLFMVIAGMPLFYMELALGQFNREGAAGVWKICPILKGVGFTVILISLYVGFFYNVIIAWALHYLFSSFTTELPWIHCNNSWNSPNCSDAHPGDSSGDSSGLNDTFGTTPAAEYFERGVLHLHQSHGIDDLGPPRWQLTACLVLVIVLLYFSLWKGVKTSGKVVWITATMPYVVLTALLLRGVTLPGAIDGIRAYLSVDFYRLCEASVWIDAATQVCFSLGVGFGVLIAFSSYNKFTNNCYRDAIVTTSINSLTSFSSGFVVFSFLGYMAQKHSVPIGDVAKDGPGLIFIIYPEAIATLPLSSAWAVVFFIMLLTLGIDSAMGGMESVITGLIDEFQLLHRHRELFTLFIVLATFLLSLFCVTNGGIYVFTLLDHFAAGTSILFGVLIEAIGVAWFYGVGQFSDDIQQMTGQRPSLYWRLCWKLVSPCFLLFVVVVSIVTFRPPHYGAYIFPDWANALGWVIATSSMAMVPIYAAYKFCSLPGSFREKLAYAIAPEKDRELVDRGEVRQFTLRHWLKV
Sequence of Dopamine D1 (P21728 whole entry): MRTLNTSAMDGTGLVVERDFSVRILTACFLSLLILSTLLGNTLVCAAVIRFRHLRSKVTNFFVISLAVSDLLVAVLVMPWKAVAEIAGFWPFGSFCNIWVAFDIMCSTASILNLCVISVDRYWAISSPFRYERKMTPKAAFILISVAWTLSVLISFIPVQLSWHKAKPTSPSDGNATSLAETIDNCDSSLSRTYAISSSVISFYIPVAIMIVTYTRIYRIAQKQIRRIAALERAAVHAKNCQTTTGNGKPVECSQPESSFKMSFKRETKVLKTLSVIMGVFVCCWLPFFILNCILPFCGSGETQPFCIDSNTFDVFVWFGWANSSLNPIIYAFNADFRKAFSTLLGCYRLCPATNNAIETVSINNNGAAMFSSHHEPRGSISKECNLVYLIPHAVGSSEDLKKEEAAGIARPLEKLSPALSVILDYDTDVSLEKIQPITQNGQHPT
Sequence of 5-HT5 (P47898 whole entry, species assumed): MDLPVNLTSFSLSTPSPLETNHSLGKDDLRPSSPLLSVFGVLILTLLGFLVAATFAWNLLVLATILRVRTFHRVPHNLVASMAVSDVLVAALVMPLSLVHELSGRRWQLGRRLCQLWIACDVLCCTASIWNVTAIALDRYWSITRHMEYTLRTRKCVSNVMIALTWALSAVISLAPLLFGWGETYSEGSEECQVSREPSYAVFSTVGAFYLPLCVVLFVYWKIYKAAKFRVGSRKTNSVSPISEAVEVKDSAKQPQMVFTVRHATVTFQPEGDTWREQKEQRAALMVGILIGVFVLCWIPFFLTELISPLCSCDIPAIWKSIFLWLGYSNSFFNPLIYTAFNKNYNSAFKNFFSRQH
T2 sequence (P28335 33-458): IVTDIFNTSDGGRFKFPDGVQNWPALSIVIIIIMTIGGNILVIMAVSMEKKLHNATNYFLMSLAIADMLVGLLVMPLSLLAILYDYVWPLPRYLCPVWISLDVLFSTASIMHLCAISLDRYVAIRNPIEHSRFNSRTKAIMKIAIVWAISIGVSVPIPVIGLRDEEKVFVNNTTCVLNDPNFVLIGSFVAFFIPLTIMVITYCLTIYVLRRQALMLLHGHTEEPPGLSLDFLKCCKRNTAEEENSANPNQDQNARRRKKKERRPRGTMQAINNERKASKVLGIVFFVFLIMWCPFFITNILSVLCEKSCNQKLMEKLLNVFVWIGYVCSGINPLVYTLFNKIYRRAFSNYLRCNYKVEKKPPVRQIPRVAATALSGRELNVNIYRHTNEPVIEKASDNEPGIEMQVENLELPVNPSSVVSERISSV
Sequence of 5-HT1D (P28221 whole entry, species assumed): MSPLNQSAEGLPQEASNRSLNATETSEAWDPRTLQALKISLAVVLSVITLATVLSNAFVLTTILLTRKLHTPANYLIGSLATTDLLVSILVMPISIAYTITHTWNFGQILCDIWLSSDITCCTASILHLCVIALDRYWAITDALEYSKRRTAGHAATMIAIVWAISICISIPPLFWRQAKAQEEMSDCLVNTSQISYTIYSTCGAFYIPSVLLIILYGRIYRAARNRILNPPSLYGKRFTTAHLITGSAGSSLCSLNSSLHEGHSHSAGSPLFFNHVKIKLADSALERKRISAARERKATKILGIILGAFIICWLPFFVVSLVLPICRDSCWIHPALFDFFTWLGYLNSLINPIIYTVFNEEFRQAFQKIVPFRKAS
Sequence of Dopamine D3 (P35462 whole entry): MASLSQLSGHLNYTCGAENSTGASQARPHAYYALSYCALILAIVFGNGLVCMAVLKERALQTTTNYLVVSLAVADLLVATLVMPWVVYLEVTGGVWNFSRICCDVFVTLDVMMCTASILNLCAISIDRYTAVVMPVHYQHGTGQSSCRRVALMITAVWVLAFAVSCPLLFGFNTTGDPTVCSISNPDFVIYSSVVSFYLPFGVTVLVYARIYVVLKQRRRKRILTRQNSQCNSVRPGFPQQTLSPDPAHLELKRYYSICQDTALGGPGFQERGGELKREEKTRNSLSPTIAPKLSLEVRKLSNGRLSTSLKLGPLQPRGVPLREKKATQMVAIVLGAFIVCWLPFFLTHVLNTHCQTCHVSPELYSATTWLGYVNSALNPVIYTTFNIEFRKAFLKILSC
Sequence of 5-HT1A (P08908 whole entry, species assumed): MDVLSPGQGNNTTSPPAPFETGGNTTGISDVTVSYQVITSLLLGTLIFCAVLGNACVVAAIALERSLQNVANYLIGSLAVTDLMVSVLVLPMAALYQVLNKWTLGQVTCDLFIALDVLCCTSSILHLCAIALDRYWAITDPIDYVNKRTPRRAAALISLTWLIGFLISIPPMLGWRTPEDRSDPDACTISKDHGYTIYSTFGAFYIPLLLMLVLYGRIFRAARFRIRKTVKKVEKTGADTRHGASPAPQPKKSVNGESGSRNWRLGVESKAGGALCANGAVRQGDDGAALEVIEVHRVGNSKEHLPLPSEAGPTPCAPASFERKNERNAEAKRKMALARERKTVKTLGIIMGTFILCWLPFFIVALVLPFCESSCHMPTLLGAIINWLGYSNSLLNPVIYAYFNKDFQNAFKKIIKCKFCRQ
Sequence of Adrenergic alpha2B (P18089 whole entry): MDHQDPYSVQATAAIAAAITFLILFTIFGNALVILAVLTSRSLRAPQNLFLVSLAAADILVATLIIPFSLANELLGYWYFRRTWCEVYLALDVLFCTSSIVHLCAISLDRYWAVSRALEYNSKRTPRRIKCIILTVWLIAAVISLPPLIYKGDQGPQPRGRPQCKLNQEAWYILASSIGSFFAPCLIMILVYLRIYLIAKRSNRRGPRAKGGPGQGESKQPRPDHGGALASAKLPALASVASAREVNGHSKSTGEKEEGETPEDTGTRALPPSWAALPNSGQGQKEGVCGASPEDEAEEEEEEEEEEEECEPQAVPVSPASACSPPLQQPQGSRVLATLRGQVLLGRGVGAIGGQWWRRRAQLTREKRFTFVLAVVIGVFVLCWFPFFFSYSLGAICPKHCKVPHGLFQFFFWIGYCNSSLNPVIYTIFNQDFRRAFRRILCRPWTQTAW
T1 sequence (P28223 whole entry): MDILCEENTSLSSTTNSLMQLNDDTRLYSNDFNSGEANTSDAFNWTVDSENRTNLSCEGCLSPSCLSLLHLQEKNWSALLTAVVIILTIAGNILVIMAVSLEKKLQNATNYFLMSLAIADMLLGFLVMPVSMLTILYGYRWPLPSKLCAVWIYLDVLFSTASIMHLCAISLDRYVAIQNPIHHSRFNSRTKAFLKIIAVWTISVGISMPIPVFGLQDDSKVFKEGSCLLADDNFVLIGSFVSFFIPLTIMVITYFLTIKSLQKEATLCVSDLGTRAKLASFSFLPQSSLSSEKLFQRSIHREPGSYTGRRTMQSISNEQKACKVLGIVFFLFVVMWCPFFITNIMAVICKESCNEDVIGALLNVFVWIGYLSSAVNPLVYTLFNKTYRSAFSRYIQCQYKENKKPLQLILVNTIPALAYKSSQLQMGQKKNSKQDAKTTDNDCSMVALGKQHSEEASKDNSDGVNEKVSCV
Sequence of Adrenergic alpha2C (P18825 whole entry): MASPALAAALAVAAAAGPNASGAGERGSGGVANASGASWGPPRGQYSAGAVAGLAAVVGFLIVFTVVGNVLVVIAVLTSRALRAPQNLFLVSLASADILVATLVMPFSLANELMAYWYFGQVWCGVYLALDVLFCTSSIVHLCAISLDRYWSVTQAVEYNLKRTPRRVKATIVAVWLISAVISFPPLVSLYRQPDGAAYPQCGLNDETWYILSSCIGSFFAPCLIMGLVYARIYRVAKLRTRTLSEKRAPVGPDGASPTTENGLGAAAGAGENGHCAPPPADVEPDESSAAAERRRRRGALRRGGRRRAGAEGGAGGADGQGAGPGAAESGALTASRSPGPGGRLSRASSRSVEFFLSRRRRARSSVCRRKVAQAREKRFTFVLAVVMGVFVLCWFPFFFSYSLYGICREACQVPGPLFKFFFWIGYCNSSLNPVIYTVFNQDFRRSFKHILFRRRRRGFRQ
Sequence of Adrenergic alpha2A (P08913 whole entry): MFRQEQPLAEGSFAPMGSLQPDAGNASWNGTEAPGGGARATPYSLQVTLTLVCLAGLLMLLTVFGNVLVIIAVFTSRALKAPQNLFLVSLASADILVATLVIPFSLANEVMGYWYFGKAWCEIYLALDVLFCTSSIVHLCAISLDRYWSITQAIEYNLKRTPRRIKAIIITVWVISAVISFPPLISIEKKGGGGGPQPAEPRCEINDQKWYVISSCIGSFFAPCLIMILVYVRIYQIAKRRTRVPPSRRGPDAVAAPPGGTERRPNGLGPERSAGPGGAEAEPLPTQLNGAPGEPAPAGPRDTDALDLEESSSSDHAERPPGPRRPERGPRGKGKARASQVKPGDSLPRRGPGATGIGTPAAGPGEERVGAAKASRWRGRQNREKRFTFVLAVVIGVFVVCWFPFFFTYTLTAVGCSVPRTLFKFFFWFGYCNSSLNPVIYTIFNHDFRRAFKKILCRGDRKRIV

## CC(C)(CN1CCN(C2=Nc3ccc(Cl)cc3Cn3cc(Br)cc32)CC1)C(=O)O [Example 15, 3-[4-(2-Bromo-7-chloro-5H-pyrrolo[2,1-c][1,4]benzodiazepin-11-yl)piperazin-1-yl]-2,2-dimethylpropanoic acid dihydrochloride]
Wistar rats
  REM sleep inhibition (in words): without significant
  cumulative NREM sleep time (in words): significantly increase
  cumulative total sleep time (in words): significantly increase
  inhibition of locomotor intensity (LMI) (in words): without significant
  rebound insomnia (in words): without significant

## CCc1cc2n(c1)Cc1cc(Cl)ccc1N=C2N1CCN(CC(C)(C)C(=O)O)CC1 [Example 16, 3-[4-(7-Chloro-2-ethyl-5H-pyrrolo[2,1-c][1,4]benzodiazepin-11-yl)piperazin-1-yl]-2,2-dimethylpropanoic acid dihydrochloride]
Wistar rats
  REM sleep inhibition (in words): without significant
  cumulative NREM sleep time (in words): significantly increase
  cumulative total sleep time (in words): significantly increase
  inhibition of locomotor intensity (LMI) (in words): without significant
  rebound insomnia (in words): without significant

## Cc1cc2n(c1)Cc1cc(Cl)ccc1N=C2N1CCN(CC(C)(C)C(=O)O)CC1 [Example 1, 3-[4-(7-chloro-2-methyl-5H-pyrrolo[2,1-c][1,4]benzodiazepin-11-yl)piperazin-1-yl]-2,2-dimethylpropanoic acid]
[1]
  Ki: 0.0575 µM
[2]
  Ki: 3.81 µM
hERG channel
  hERG Channel: >100 µM
Dopamine D1
  Ki: 3.79 µM
Dopamine D2
  Ki: > 4.5 µM
Dopamine D3
  Ki: > 5.68 µM
5-HT1A
  Ki: > 6.94 µM
5-HT1B
  Ki: > 5.58 µM
5-HT1D
  Ki: > 3.98 µM
5-HT5
  Ki: > 8.83 µM
5-HT6
  Ki: 2.69 µM
5-HT7
  Ki: > 2.06 µM
Adrenergic alpha1A
  Ki: > 8.91 µM
Adrenergic alpha1B
  Ki: > 10.9 µM
Adrenergic alpha2A
  Ki: > 9.03 µM
Adrenergic alpha2B
  Ki: > 4.98 µM
Adrenergic alpha2C
  Ki: > 4.02 µM
Serotonin Transporter
  Serotonin Transporter: >641
Norepinephrine Transport
  Norepinephrine Transport: >682
Dopamine Transporter
  Dopamine Transporter: >879
[3]
  Ki: 0.0273 µM

## CC(C)(CN1CCN(C2=Nc3ccc(Cl)cc3Cn3cc(Cl)cc32)CC1)C(=O)O [Example 19, 3-[4-(2,7-Dichloro-5H-pyrrolo[2,1-c][1,4]benzodiazepin-11-yl)piperazin-1-yl]-2,2-dimethylpropanoic acid dihydrochloride]
Wistar rats
  REM sleep inhibition (in words): without significant
  cumulative NREM sleep time (in words): significantly increase
  cumulative total sleep time (in words): significantly increase
  inhibition of locomotor intensity (LMI) (in words): without significant
  rebound insomnia (in words): without significant

## CC(C)(CN1CCN(C2=Nc3ccc(Cl)cc3Cn3cc(C(F)(F)F)cc32)CC1)C(=O)O [Example 18, 3-{4-[7-Chloro-2-(trifluoromethyl)-5H-pyrrolo[2,1-c][1,4]benzodiazepin-11-yl]piperazin-1-yl}-2,2-dimethylpropanoic acid dihydrochloride]
Wistar rats
  REM sleep inhibition (in words): without significant
  cumulative NREM sleep time (in words): significantly increase
  cumulative total sleep time (in words): significantly increase
  inhibition of locomotor intensity (LMI) (in words): without significant
  rebound insomnia (in words): without significant
